Assay results: patent US6737383B1, “Herbicidal oxadiazolidines” (priority 1999, dated 2004)

Key:
blackgrass = assay: Test B pre/postemergence blackgrass; format: in vivo, Alopecurus myosuroides
Method in brief: (§1)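 Test chemicals in a non-phytotoxic solvent mixture with surfactant were sprayed preemergence onto planted seeds and postemergence onto plants 2 to 18 cm tall (1- to 4-leaf stage). After twelve to sixteen days in a greenhouse, injury was visually rated against untreated controls from 0 (no effect) to 10 (complete control).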

velvetleaf = assay: Test B pre/postemergence velvetleaf; format: in vivo, Abutilon theophrasti
Method in brief: as §1

wheat = assay: Test B pre/postemergence wheat; format: in vivo, Triticum aestivum
Method in brief: as §1

bedstraw = assay: Test B pre/postemergence bedstraw; format: in vivo, Galium aparine
Method in brief: as §1

[1] = Preemergence, Rate 62 g/ha, scale of 0 to 10 where 0 is no effect and 10 is complete control
[2] = Preemergence, Rate 125 g/ha, 0 is no effect, 10 is complete control
[3] = Preemergence, Rate 250 g/ha, scale 0 to 10, 0 is no effect, 10 is complete control
[4] = Preemergence, Rate 500 g/ha, scale of 0 to 10 where 0 is no effect and 10 is complete control
[5] = Rate 62 g/ha, Postemergence, scale of 0 to 10 where 0 is no effect and 10 is complete control
[6] = Rate 125 g/ha, Postemergence, scale 0 to 10
[7] = Postemergence, Rate 62 g/ha, scale of 0 to 10, 0 is no effect, 10 is complete control
[8] = Postemergence, Rate 125 g/ha, scale 0 to 10, 0 is no effect, 10 is complete control
[9] = Postemergence, Rate 500 g/ha, scale of 0 to 10 where 0 is no effect and 10 is complete control
[10] = Preemergence, Rate 62 g/ha, scale 0 to 10 (0 no effect, 10 complete control)
[11] = Preemergence, Rate 125 g/ha, scale 0 to 10, 0 is no effect, 10 is complete control
[12] = Rate 250 g/ha, Postemergence, scale of 0 to 10 where 0 is no effect and 10 is complete control
[13] = Postemergence, Rate 31 g/ha, visual rating, scale 0 to 10 (0 no effect, 10 complete control)
[14] = Preemergence, Rate 31 g/ha, visual rating, scale 0 to 10 (0 no effect, 10 complete control)
[15] = Preemergence, Rate 250 g/ha, scale of 0 to 10 where 0 is no effect and 10 is complete control
[16] = Rate 62 g/ha, Postemergence, scale 0 to 10 (0 no effect, 10 complete control)
[17] = Rate 125 g/ha, Postemergence, scale of 0 to 10 where 0 is no effect and 10 is complete control
[18] = Rate 125 g/ha, Preemergence, scale of 0 to 10 where 0 is no effect and 10 is complete control
[19] = Postemergence, Rate 62 g/ha, scale 0 to 10, 0 is no effect, 10 is complete control
[20] = Postemergence, Rate 250 g/ha, scale 0 to 10, 0 no effect, 10 complete control
[21] = Preemergence, Rate 62 g/ha, scale 0 to 10, 0 is no effect, 10 is complete control
[22] = Preemergence, Rate 125 g/ha, scale 0 to 10 (0 no effect, 10 complete control)
[23] = Preemergence, Rate 500 g/ha, scale 0 (no effect) to 10 (complete control)
[24] = Rate 125 g/ha, Postemergence, scale 0 to 10, 0 no effect, 10 complete control
[25] = Rate 500 g/ha, Postemergence, 0 to 10 scale (0 no effect, 10 complete control)
[26] = Postemergence, Rate 250 g/ha, scale 0 to 10, 0 is no effect, 10 is complete control
[27] = Preemergence, Rate 125 g/ha, scale of 0 to 10 where 0 is no effect and 10 is complete control
[28] = Preemergence, Rate 500 g/ha, scale 0 to 10, 0 is no effect, 10 is complete control

## Cc1nc(C)c(-n2c(=O)on(C(=O)N(c3ccc(F)cc3)C(C)C)c2=O)s1 [Compound 198]
blackgrass; [1]
  Blackgrass plant response rating: 0
blackgrass; [2]
  Blackgrass plant response rating (0 to 10 scale): 0
blackgrass; [3]
  Blackgrass plant response rating: 0
blackgrass; [4]
  Plant response rating, Blackgrass: 0
blackgrass; [5]
  Blackgrass plant response rating: 0
blackgrass; [6]
  Blackgrass plant response rating: 0
blackgrass; Rate 250 g/ha, Postemergence
  Plant response rating (0 to 10; 0 is no effect, 10 is complete control), Blackgrass: 0
blackgrass; Rate 500 g/ha, Postemergence, scale 0 to 10
  Blackgrass plant response rating: 0
velvetleaf; [1]
  Velvetleaf plant response rating: 0
velvetleaf; [3]
  Velvetleaf plant response rating: 0
velvetleaf; [4]
  Plant response rating, Velvetleaf: 0
velvetleaf; [5]
  Velvetleaf plant response rating: 0
velvetleaf; [6]
  Velvetleaf plant response rating: 0
velvetleaf; Rate 250 g/ha, Postemergence
  Plant response rating (0 to 10; 0 is no effect, 10 is complete control), Velvetleaf: 0
wheat; [1]
  Wheat plant response rating: 0
wheat; [3]
  Wheat plant response rating: 0
wheat; [4]
  Plant response rating, Wheat: 0
wheat; [5]
  Wheat plant response rating: 0
wheat; [6]
  Wheat plant response rating: 0
wheat; Rate 250 g/ha, Postemergence
  Plant response rating (0 to 10; 0 is no effect, 10 is complete control), Wheat: 0
bedstraw; [1]
  Bedstraw plant response rating: 0
bedstraw; [2]
  Bedstraw plant response rating (0 to 10 scale): 0
bedstraw; [3]
  Bedstraw plant response rating: 0
bedstraw; [4]
  Plant response rating, Bedstraw: 0
bedstraw; [5]
  Bedstraw plant response rating: 0
bedstraw; [6]
  Bedstraw plant response rating: 0
bedstraw; Rate 250 g/ha, Postemergence
  Plant response rating (0 to 10; 0 is no effect, 10 is complete control), Bedstraw: 0

## CC(C)N(C(=O)n1oc(=O)n(CCc2ccccc2)c1=O)c1ccccc1 [Compound 567]
blackgrass; [7]
  Blackgrass plant response rating: 0
blackgrass; [8]
  Blackgrass plant response rating: 0
blackgrass; [9]
  Plant response rating, Blackgrass: 0
blackgrass; [10]
  Blackgrass plant response rating: 0
blackgrass; [11]
  Blackgrass plant response rating: 0
blackgrass; Preemergence, Rate 250 g/ha
  Blackgrass plant response rating (0 to 10 scale): 0
blackgrass; [4]
  Blackgrass plant response rating: 7
blackgrass; [12]
  Plant response rating, Blackgrass: 0
velvetleaf; [9]
  Plant response rating, Velvetleaf: 2
velvetleaf; [10]
  Velvetleaf plant response rating: 0
velvetleaf; [11]
  Velvetleaf plant response rating: 0
velvetleaf; Preemergence, Rate 250 g/ha
  Velvetleaf plant response rating (0 to 10 scale): 0
velvetleaf; [4]
  Velvetleaf plant response rating: 0
velvetleaf; [12]
  Plant response rating, Velvetleaf: 0
wheat; [9]
  Plant response rating, Wheat: 0
wheat; [10]
  Wheat plant response rating: 0
wheat; [11]
  Wheat plant response rating: 0
wheat; Preemergence, Rate 250 g/ha
  Wheat plant response rating (0 to 10 scale): 0
wheat; [4]
  Wheat plant response rating: 0
wheat; [12]
  Plant response rating, Wheat: 0
bedstraw; [7]
  Bedstraw plant response rating: 0
bedstraw; [8]
  Bedstraw plant response rating: 0
bedstraw; [9]
  Plant response rating, Bedstraw: 0
bedstraw; [10]
  Bedstraw plant response rating: 0
bedstraw; [11]
  Bedstraw plant response rating: 0
bedstraw; Preemergence, Rate 250 g/ha
  Bedstraw plant response rating (0 to 10 scale): 0
bedstraw; [4]
  Bedstraw plant response rating: 0
bedstraw; [12]
  Plant response rating, Bedstraw: 0

## CC(C)N(C(=O)n1oc(=O)n(CCCCF)c1=O)c1ccc(F)cc1 [Compound 289]
blackgrass; [13]
  Blackgrass plant response rating: 2
blackgrass; [14]
  Blackgrass plant response rating: 6
blackgrass; [1]
  Blackgrass plant response rating: 8
blackgrass; [15]
  Blackgrass plant response rating: 9
blackgrass; [16]
  Blackgrass plant response rating: 5
blackgrass; [17]
  Blackgrass plant response rating: 9
blackgrass; [18]
  Blackgrass plant response rating: 9
blackgrass; [12]
  Plant response rating, Blackgrass: 9
velvetleaf; [13]
  Velvetleaf plant response rating: 0
velvetleaf; [14]
  Velvetleaf plant response rating: 0
velvetleaf; [1]
  Velvetleaf plant response rating: 3
velvetleaf; [15]
  Velvetleaf plant response rating: 7
velvetleaf; [16]
  Velvetleaf plant response rating: 0
velvetleaf; [17]
  Velvetleaf plant response rating: 0
velvetleaf; [18]
  Velvetleaf plant response rating: 6
velvetleaf; [12]
  Plant response rating, Velvetleaf: 3
wheat; [13]
  Wheat plant response rating: 0
wheat; [14]
  Wheat plant response rating: 0
wheat; [1]
  Wheat plant response rating: 0
wheat; [15]
  Wheat plant response rating: 2
wheat; [16]
  Wheat plant response rating: 2
wheat; [17]
  Wheat plant response rating: 5
wheat; [18]
  Wheat plant response rating: 2
wheat; [12]
  Plant response rating, Wheat: 7
bedstraw; [13]
  Bedstraw plant response rating: 0
bedstraw; [14]
  Bedstraw plant response rating: 0
bedstraw; [1]
  Bedstraw plant response rating: 0
bedstraw; [15]
  Bedstraw plant response rating: 7
bedstraw; [16]
  Bedstraw plant response rating: 0
bedstraw; [17]
  Bedstraw plant response rating: 3
bedstraw; [18]
  Bedstraw plant response rating: 4
bedstraw; [12]
  Plant response rating, Bedstraw: 8

## CC(C)N(C(=O)n1oc(=O)n(-c2ccccc2OC(F)(F)F)c1=O)c1ccc(F)cc1 [Compound 14]
blackgrass; [19]
  Blackgrass plant response rating: 0
blackgrass; [20]
  Blackgrass plant response rating: 0
blackgrass; [21]
  Plant response rating, Blackgrass: 0
blackgrass; [22]
  Plant response rating, Blackgrass: 0
blackgrass; [15]
  Plant response rating, Blackgrass: 0
blackgrass; [23]
  Blackgrass plant response rating: 2
blackgrass; [24]
  Blackgrass plant response rating: 0
blackgrass; [25]
  Blackgrass plant response rating: 3
velvetleaf; [19]
  Velvetleaf plant response rating: 0
velvetleaf; [20]
  Velvetleaf plant response rating: 0
velvetleaf; [21]
  Plant response rating, Velvetleaf: 0
velvetleaf; [22]
  Plant response rating, Velvetleaf: 0
velvetleaf; [15]
  Plant response rating, Velvetleaf: 0
velvetleaf; [23]
  Velvetleaf plant response rating: 0
velvetleaf; [24]
  Velvetleaf plant response rating: 0
wheat; [19]
  Wheat plant response rating: 0
wheat; [20]
  Wheat plant response rating: 0
wheat; [21]
  Plant response rating, Wheat: 0
wheat; [22]
  Plant response rating, Wheat: 0
wheat; [15]
  Plant response rating, Wheat: 0
wheat; [23]
  Wheat plant response rating: 0
wheat; [24]
  Wheat plant response rating: 0
bedstraw; [19]
  Bedstraw plant response rating: 0
bedstraw; [20]
  Bedstraw plant response rating: 0
bedstraw; [21]
  Plant response rating, Bedstraw: 0
bedstraw; [22]
  Plant response rating, Bedstraw: 0
bedstraw; [15]
  Plant response rating, Bedstraw: 0
bedstraw; [23]
  Bedstraw plant response rating: 4
bedstraw; [24]
  Bedstraw plant response rating: 0
bedstraw; [25]
  Bedstraw plant response rating: 1

## CC(C)N(C(=O)n1oc(=O)n(CC#N)c1=O)c1ccc(F)cc1 [Compound 395]
blackgrass; [8]
  Plant response rating, Blackgrass: 0
blackgrass; [26]
  Plant response rating, Blackgrass: 0
blackgrass; [9]
  Blackgrass plant response rating: 5
blackgrass; [10]
  Plant response rating, Blackgrass: 0
blackgrass; [27]
  Plant response rating, Blackgrass: 0
blackgrass; [15]
  Blackgrass plant response rating: 0
blackgrass; [28]
  Blackgrass plant response rating: 0
blackgrass; [5]
  Blackgrass plant response rating: 0
velvetleaf; [26]
  Plant response rating, Velvetleaf: 2
velvetleaf; [9]
  Velvetleaf plant response rating: 2
velvetleaf; [10]
  Plant response rating, Velvetleaf: 0
velvetleaf; [27]
  Plant response rating, Velvetleaf: 0
velvetleaf; [3]
  Velvetleaf plant response rating: 0
velvetleaf; [28]
  Velvetleaf plant response rating: 0
velvetleaf; [5]
  Velvetleaf plant response rating: 0
wheat; [9]
  Wheat plant response rating: 3
wheat; [10]
  Plant response rating, Wheat: 0
wheat; [27]
  Plant response rating, Wheat: 0
wheat; [3]
  Wheat plant response rating: 0
wheat; [28]
  Wheat plant response rating: 0
wheat; [5]
  Wheat plant response rating: 0
bedstraw; [8]
  Plant response rating, Bedstraw: 0
bedstraw; [26]
  Plant response rating, Bedstraw: 0
bedstraw; [9]
  Bedstraw plant response rating: 4
bedstraw; [10]
  Plant response rating, Bedstraw: 0
bedstraw; [27]
  Plant response rating, Bedstraw: 0
bedstraw; [15]
  Bedstraw plant response rating: 0
bedstraw; [28]
  Bedstraw plant response rating: 0
bedstraw; [5]
  Bedstraw plant response rating: 0

## CC(C)N(C(=O)n1oc(=O)n(CC2(C)COC2)c1=O)c1ccccc1 [Compound 420]
blackgrass; [8]
  Plant response rating, Blackgrass: 2
blackgrass; [26]
  Plant response rating, Blackgrass: 6
blackgrass; [9]
  Blackgrass plant response rating: 6
blackgrass; [10]
  Plant response rating, Blackgrass: 4
blackgrass; [27]
  Plant response rating, Blackgrass: 8
blackgrass; [15]
  Blackgrass plant response rating: 8
blackgrass; [28]
  Blackgrass plant response rating: 10
blackgrass; [5]
  Blackgrass plant response rating: 0
velvetleaf; [26]
  Plant response rating, Velvetleaf: 0
velvetleaf; [9]
  Velvetleaf plant response rating: 0
velvetleaf; [10]
  Plant response rating, Velvetleaf: 0
velvetleaf; [27]
  Plant response rating, Velvetleaf: 2
velvetleaf; [3]
  Velvetleaf plant response rating: 6
velvetleaf; [28]
  Velvetleaf plant response rating: 7
wheat; [9]
  Wheat plant response rating: 5
wheat; [10]
  Plant response rating, Wheat: 0
wheat; [27]
  Plant response rating, Wheat: 0
wheat; [3]
  Wheat plant response rating: 2
wheat; [28]
  Wheat plant response rating: 7
bedstraw; [8]
  Plant response rating, Bedstraw: 0
bedstraw; [26]
  Plant response rating, Bedstraw: 3
bedstraw; [9]
  Bedstraw plant response rating: 5
bedstraw; [5]
  Bedstraw plant response rating: 0
